Structures can show the parent of a compound that is named as a salt.
Biological target: T1, human B1 (Homo sapiens, UniProt P46663)
T1 construct: host or cells: CHO-K1
T1 sequence (P46663 1-353): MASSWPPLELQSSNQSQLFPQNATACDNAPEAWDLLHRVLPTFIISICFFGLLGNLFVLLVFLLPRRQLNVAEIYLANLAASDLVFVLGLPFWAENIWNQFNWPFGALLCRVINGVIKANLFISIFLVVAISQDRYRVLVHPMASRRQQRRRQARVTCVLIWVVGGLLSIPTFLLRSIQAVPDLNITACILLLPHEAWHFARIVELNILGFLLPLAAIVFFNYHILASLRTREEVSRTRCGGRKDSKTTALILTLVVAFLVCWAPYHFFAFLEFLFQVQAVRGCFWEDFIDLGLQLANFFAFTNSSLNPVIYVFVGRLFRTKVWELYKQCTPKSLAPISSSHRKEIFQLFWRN
Test: Calcium flux assay for Bradykinin B1 antagonist, CHO-K1 cell line expressing human B1
Format: cell-based
Details: CHO-K1 cells expressing human B1, agonist Lys-(Des-Arg)-Bradykinin, read-out: Potency (IC50 value against human B1)
Summary of the method: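 CHO-K1 cells expressing human B1, loaded with 5 μM Fluo-4AM (2 h, 37° C) in HEPES buffer pH 7.4 with probenecid and 0.1% BSA, were preincubated 30 min at 25° C with compound (8 concentrations, triplicate, 1% DMSO) before B1 agonist addition. Ca2+ fluorescence monitored at 538 nm; background-normalized integrated values plotted against log antagonist concentration.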

Question: How did the IC50 turn out when `COc1cc(C)c(S(=O)(=O)N(C)Cc2nc(C(=O)N(C)Cc3ccc(CN4CCC(N(C)C)C4)cc3)co2)c(C)c1` (stereo not shown) [Ex 177, N-(4-{[3-(Dimethylamino)pyrrolidin-1-yl]methyl}benzyl)-2-({[(4-methoxy-2,6-dimethylphenyl)sulfonyl](methyl)amino}methyl)-N-methyl-1,3-oxazole-4-carboxamide] was run?
Answer: Its IC50 is 10 to 100 nM.

Question: `COc1cc(C)c(S(=O)(=O)N(C)Cc2nnc(C(=O)N3CCN(Cc4ccc(OC)nc4)CC3)o2)c(C)c1` [Ex 260, 4-Methoxy-N-{[5-({4-[(6-methoxypyridin-3-yl)methyl]piperazin-1-yl}carbonyl)-1,3,4-oxadiazol-2-yl]methyl}-N,2,6-trimethylbenzenesulfonamide trifluoroacetate] was tested. Which IC50 did it give?
Answer: The IC50 was 10 to 100 nM.

Question: Which IC50 does the source give for `COc1cc(C)c(S(=O)(=O)N(Cc2cc(C(=O)N(C)Cc3ccc(CN4CCCC(O)C4)cc3)co2)C2CC2)c(C)c1` (stereo not shown) [Ex 142, 5-({Cyclopropyl[(4-methoxy-2,6-dimethylphenyl)sulfonyl]amino}methyl)-N-{4-[(3-hydroxypiperidin-1-yl)methyl]benzyl}-N-methylfuran-3-carboxamide] here?
Answer: The IC50 was less than 10 nM.

Question: How did the IC50 turn out when `COc1cc(C)c(S(=O)(=O)N(C)Cc2cc(C(=O)NCc3ccc(C4=NCC(C)(C)N4)cc3)co2)c(C)c1` [Ex 93, N-[4-(5,5-Dimethyl-4,5-dihydro-1H-imidazol-2-yl)benzyl]-5-({[(4-methoxy-2,6-dimethylphenyl)sulfonyl](methyl)amino}methyl)furan-3-carboxamide trifluoroacetate] was run?
Answer: Its IC50 is 10 to 100 nM.

Question: `COc1cc(C)c(S(=O)(=O)N(Cc2nnc(C(=O)N3CCN(CC4CCCN(C)C4)CC3)o2)C2CC2)c(C)c1` (stereo not shown) [Ex 275, N-Cyclopropyl-4-methoxy-2,6-dimethyl-N-{[5-({4-[(1-methylpiperidin-3-yl)methyl]piperazin-1-yl}carbonyl)-1,3,4-oxadiazol-2-yl]methyl}benzenesulfonamide] was tested. Which IC50 did it give?
Answer: The IC50 was 10 to 100 nM.

Question: How did the IC50 turn out when `COc1cc(C)c(S(=O)(=O)N(C)Cc2nc(C(=O)N(C)Cc3cccc(CN4CCCC4)c3)no2)c(C)c1` [Ex 324, 5-({[(4-Methoxy-2,6-dimethylphenyl)sulfonyl](methyl)amino}methyl)-N-methyl-N-[3-(pyrrolidin-1-ylmethyl)benzyl]-1,2,4-oxadiazole-3-carboxamide trifluoroacetate] was run?
Answer: Its IC50 is 10 to 100 nM.

Question: `COc1cc(C)c(S(=O)(=O)N(C)Cc2cc(C(=O)N(C)Cc3ccc(C4=NCCN4)cc3)c(C)o2)c(C)c1` [Ex 58, N-[4-(4,5-dihydro-1H-imidazol-2-yl)benzyl]-5-({[(4-methoxy-2,6-dimethylphenyl)sulfonyl](methyl)amino}methyl)-N,2-dimethylfuran-3-carboxamide] was tested. Which IC50 did it give?
Answer: Its IC50 is 10 to 100 nM.

Question: `COc1cc(C)c(S(=O)(=O)N(C)Cc2cc(C(=O)N(C)Cc3nnc(CN4CCCC4)s3)co2)c(C)c1` [Ex 137, 5-({[(4-Methoxy-2,6-dimethylphenyl)sulfonyl](methyl)amino}methyl)-N-methyl-N-{[5-(pyrrolidin-1-ylmethyl)-1,3,4-thiadiazol-2-yl]methyl}furan-3-carboxamide] was tested. Which IC50 did it give?
Answer: Its IC50 is 100 to 1000 nM.

Question: `COc1cc(C)c(S(=O)(=O)N(Cc2cc(C(=O)N(C)Cc3ccc(CN4CCC(NC(C)=O)C4)cc3)co2)C2CC2)c(C)c1` (stereo not shown) [Ex 146, N-(4-{[3-(Acetylamino)pyrrolidin-1-yl]methyl}benzyl)-5-({cyclopropyl[(4-methoxy-2,6-dimethylphenyl)sulfonyl]amino}methyl)-N-methylfuran-3-carboxamide] was tested. Which IC50 did it give?
Answer: Its IC50 is 100 to 1000 nM.

Question: How did the IC50 turn out when `COc1cc(C)c(S(=O)(=O)N(Cc2cc(C(=O)N3CCN(CCc4ccncc4)CC3)co2)C2CC2)c(C)c1` [Ex 110, N-Cyclopropyl-4-methoxy-2,6-dimethyl-N-[(4-{[4-(2-pyridin-4-ylethyl)piperazin-1-yl]carbonyl}furan-2-yl)methyl]benzenesulfonamide trifluoroacetate] was run?
Answer: Its IC50 is 100 to 1000 nM.

Question: Which IC50 does the source give for `CN(Cc1ccc(CN2CCCC2)cc1)C(=O)c1coc(CN(C2CC2)S(=O)(=O)c2ccccc2C(F)(F)F)n1` [Ex 222, 2-[(Cyclopropyl{[2-(trifluoromethyl)phenyl]sulfonyl}amino)methyl]-N-methyl-N-[4-(pyrrolidin-1-ylmethyl)benzyl]-1,3-oxazole-4-carboxamide trifluoroacetate] here?
Answer: The IC50 was 100 to 1000 nM.

Question: Which IC50 does the source give for `COc1cc(C)c(S(=O)(=O)N(Cc2nc(C(=O)N3CCC(CCN4CCCC4)CC3)co2)C2CC2)c(C)c1` [Ex 193, N-Cyclopropyl-4-methoxy-2,6-dimethyl-N-[(4-{[4-(2-pyrrolidin-1-ylethyl)piperidin-1-yl]carbonyl}-1,3-oxazol-2-yl)methyl]benzenesulfonamide trifluoroacetate] here?
Answer: The IC50 was less than 10 nM.

Question: Which IC50 does the source give for `COc1cc(C)c(S(=O)(=O)N(C)Cc2nnc(C(=O)N3CCN(Cc4ccc(N5CCCC5)nc4)CC3)o2)c(C)c1` [Ex 261, 4-Methoxy-N,2,6-trimethyl-N-{[5-({4-[(6-pyrrolidin-1-ylpyridin-3-yl)methyl]piperazin-1-yl}carbonyl)-1,3,4-oxadiazol-2-yl]methyl}benzenesulfonamide trifluoroacetate] here?
Answer: Its IC50 is less than 10 nM.

Question: For `CN(CCc1ccc(C2=NCCN2)cc1)C(=O)c1coc(CN(C2CC2)S(=O)(=O)c2ccccc2C(F)(F)F)n1` [Ex 221, 2-[(Cyclopropyl{[2-(trifluoromethyl)phenyl]sulfonyl}amino)methyl]-N-{2-[4-(4,5-dihydro-1H-imidazol-2-yl)phenyl]ethyl}-N-methyl-1,3-oxazole-4-carboxamide trifluoroacetate], which IC50 is on record?
Answer: The IC50 was 100 to 1000 nM.

Question: For `CCN(Cc1cc(C(=O)N(C)Cc2ccc(C3=NCCN3)cc2)co1)S(=O)(=O)c1c(C)cc(OC)cc1C` [Ex 103, N-[4-(4,5-Dihydro-1H-imidazol-2-yl)benzyl]-5-({ethyl[(4-methoxy-2,6-dimethylphenyl)sulfonyl]amino}methyl)-N-methylfuran-3-carboxamide trifluoroacetate], which IC50 is on record?
Answer: The IC50 was 10 to 100 nM.

Question: `COc1cc(C)c(S(=O)(=O)N(C)Cc2nnc(C(=O)N(C)Cc3nc(CN4CCCC4)cs3)o2)c(C)c1` [Ex 286, 5-({[(4-Methoxy-2,6-dimethylphenyl)sulfonyl](methyl)amino}methyl)-N-methyl-N-{[4-(pyrrolidin-1-ylmethyl)-1,3-thiazol-2-yl]methyl}-1,3,4-oxadiazole-2-carboxamide] was tested. Which IC50 did it give?
Answer: Its IC50 is 100 to 1000 nM.

Question: For `COc1cc(C)c(S(=O)(=O)N(C)Cc2cc(C(=O)N3CCN(C4CCN(C)CC4)CC3)co2)c(C)c1` [Ex 1, 4-Methoxy-N,2,6-trimethyl-N-[(4-{[4-(1-methylpiperidin-4-yl)piperazin-1-yl]carbonyl}furan-2-yl)methyl]benzenesulfonamide], which IC50 is on record?
Answer: Its IC50 is 100 to 1000 nM.

Question: How did the IC50 turn out when `COc1cc(C)c(S(=O)(=O)N(C)Cc2noc(C(=O)N3CCN(CCCCN(C)C)CC3)n2)c(C)c1` [Ex 319, N-{[5-({4-[4-(Dimethylamino)butyl]piperazin-1-yl}carbonyl)-1,2,4-oxadiazol-3-yl]methyl}-4-methoxy-N,2,6-trimethylbenzenesulfonamide trifluoroacetate] was run?
Answer: The IC50 was 100 to 1000 nM.

Question: `COc1cc(C)c(S(=O)(=O)N(Cc2nc(C(=O)N(C)Cc3cccc(CN4CCCC4)c3)co2)C2CC2)c(C)c1` [Ex 77, 2-({Cyclopropyl[(4-methoxy-2,6-dimethylphenyl)sulfonyl]amino}methyl)-N-methyl-N-[3-(pyrrolidin-1-ylmethyl)benzyl]-1,3-oxazole-4-carboxamide] was tested. Which IC50 did it give?
Answer: The IC50 was less than 10 nM.

Question: For `COc1cc(C)c(S(=O)(=O)N(Cc2nc(C(=O)N3CCC(O)(/C=C/c4cccnc4)CC3)co2)C2CC2)c(C)c1` [Ex 240, N-Cyclopropyl-N-{[4-({4-hydroxy-4-[(E)-2-pyridin-3-ylethenyl]piperidin-1-yl}carbonyl)-1,3-oxazol-2-yl]methyl}-4-methoxy-2,6-dimethylbenzenesulfonamide trifluoroacetate], which IC50 is on record?
Answer: The IC50 was 10 to 100 nM.

Question: `COc1cc(C)c(S(=O)(=O)N(Cc2nc(C(=O)N(C)Cc3nnc(CN4CCCC4)s3)co2)C2CC2)c(C)c1` [Ex 199, 2-({Cyclopropyl[(4-methoxy-2,6-dimethylphenyl)sulfonyl]amino}methyl)-N-methyl-N-{[5-(pyrrolidin-1-ylmethyl)-1,3,4-thiadiazol-2-yl]methyl}-1,3-oxazole-4-carboxamide trifluoroacetate] was tested. Which IC50 did it give?
Answer: The IC50 was less than 10 nM.

Question: Which IC50 does the source give for `COc1cc(C)c(S(=O)(=O)N(C)Cc2cc(C(=O)N3CCN(CCc4ccncc4)CC3)co2)c(C)c1` [Ex 33, 4-methoxy-N,2,6-trimethyl-N-[(4-{[4-(2-pyridin-4-ylethyl)piperazin-1-yl]carbonyl}furan-2-yl)methyl]benzenesulfonamide] here?
Answer: Its IC50 is 100 to 1000 nM.

Question: For `COc1cc(C)c(S(=O)(=O)N(C)Cc2cc(C(=O)N(C)CCc3ccc(C4=NCCN4)cc3)co2)c(C)c1` [Ex 5, N-{2-[4-(4,5-dihydro-1H-imidazol-2-yl)phenyl]ethyl}-5-({[(4-methoxy-2,6-dimethylphenyl)sulfonyl](methyl)amino}methyl)-N-methylfuran-3-carboxamide], which IC50 is on record?
Answer: The IC50 was less than 10 nM.

Question: Which IC50 does the source give for `COc1cc(C)c(S(=O)(=O)N(Cc2noc(C(=O)N3CCN(CC4CCN(C)CC4)CC3)n2)C2CC2)c(C)c1` [Ex 314, N-Cyclopropyl-4-methoxy-2,6-dimethyl-N-{[5-({4-[(1-methylpiperidin-4-yl)methyl]piperazin-1-yl}carbonyl)-1,2,4-oxadiazol-3-yl]methyl}benzenesulfonamide] here?
Answer: The IC50 was less than 10 nM.

Question: `COc1cc(C)c(S(=O)(=O)N(C)Cc2ccc(C(=O)N3CCN(C4CCN(C)CC4)CC3)o2)c(C)c1` [Ex 62, 4-Methoxy-N,2,6-trimethyl-N-[(5-{[4-(1-methylpiperidin-4-yl)piperazin-1-yl]carbonyl}furan-2-yl)methyl]benzenesulfonamide] was tested. Which IC50 did it give?
Answer: Its IC50 is 100 to 1000 nM.
